Data as given in the supplement of paper PMC10307832.

How the values were obtained:
Assay in all cases: relative viability (nuclei count vs DMSO), 5 days (fraction); higher = more cells survive
[1] = compound: CC[C@H](CO)Nc1nc(NCc2ccccc2)c2ncn(C(C)C)c2n1 [Seliciclib] + O=C(CCCCCCC(=O)Nc1ccccc1)NO [Vorinostat] (partner 1 µM)
How it was run: (§1)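 Relative viability was taken as the ratio of nuclei in treated wells to nuclei in vehicle wells. Lung cancer cell lines in 1536-well plates received compounds by pin tool one day after seeding, either one drug alone or a fixed anchor-drug dose plus five library-drug doses (not always all listed) in √10 steps. Nuclei were counted on 4× images after 5 days of treatment, and values are medians of duplicate plates.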

[2] = compound: CC[C@H](CO)Nc1nc(NCc2ccccc2)c2ncn(C(C)C)c2n1 [Seliciclib] + Cc1cc(Nc2cc(N3CCN(C)CC3)nc(Sc3ccc(NC(=O)C4CC4)cc3)n2)n[nH]1 [Tozasertib] (partner 0.1 µM)
How it was run: as §1

[3] = compound: CC[C@H](CO)Nc1nc(NCc2ccccc2)c2ncn(C(C)C)c2n1 [Seliciclib] + C[C@@H](Oc1cc(-c2cnn(C3CCNCC3)c2)cnc1N)c1c(Cl)ccc(F)c1Cl [Crizotinib] (partner 1 µM)
How it was run: as §1

[4] = compound: CC[C@H](CO)Nc1nc(NCc2ccccc2)c2ncn(C(C)C)c2n1 [Seliciclib] + CC1(C)CCC(c2ccc(Cl)cc2)=C(CN2CCN(c3ccc(C(=O)NS(=O)(=O)c4ccc(N[C@H](CCN5CCOCC5)CSc5ccccc5)c(S(=O)(=O)C(F)(F)F)c4)cc3)CC2)C1 [Navitoclax] (partner 0.5 µM)
How it was run: as §1

| Cell Line | relative viability ([1]; first compound 0.08 µM) | relative viability ([1]; first compound 0.253 µM) | relative viability ([1]; first compound 0.8 µM) | relative viability ([1]; first compound 2.53 µM) | relative viability ([1]; first compound 8 µM) | relative viability ([2]; first compound 0.08 µM) | relative viability ([2]; first compound 0.253 µM) | relative viability ([2]; first compound 0.8 µM) | relative viability ([2]; first compound 2.53 µM) | relative viability ([2]; first compound 8 µM) | relative viability ([3]; first compound 0.08 µM) | relative viability ([3]; first compound 0.253 µM) | relative viability ([3]; first compound 0.8 µM) | relative viability ([3]; first compound 2.53 µM) | relative viability ([3]; first compound 8 µM) | relative viability ([4]; first compound 0.08 µM) | relative viability ([4]; first compound 0.253 µM) | relative viability ([4]; first compound 0.8 µM) | relative viability ([4]; first compound 2.53 µM) | relative viability ([4]; first compound 8 µM) |
| --- | --- | --- | --- | --- | --- | --- | --- | --- | --- | --- | --- | --- | --- | --- | --- | --- | --- | --- | --- | --- |
| HCC-78 | 0.393 | 0.518 | 0.389 | 0.396 | 0.32 | 0.367 | 0.405 | 0.411 | 0.39 | 0.381 | 0.364 | 0.333 | 0.327 | 0.262 | 0.274 | 0.73 | 0.969 | 0.738 | 0.703 | 0.557 |
| NCI-H2085 | 0.763 | 0.762 | 0.756 | 0.74 | 0.556 | 0.807 | 0.96 | 0.737 | 0.619 | 0.664 | 0.866 | 0.767 | 0.9 | 0.862 | 0.706 | 1.13 | 1.16 | 1.14 | 1.05 | 0.965 |
| PC-14 | 0.663 | 0.747 | 0.744 | 0.644 | 0.625 | 0.551 | 0.608 | 0.55 | 0.574 | 0.445 | 0.865 | 0.846 | 0.78 | 0.991 | 0.759 | 0.988 | 1.04 | 0.959 | 1.09 | 0.767 |
| NCI-H358 | 0.726 | 0.942 | 0.513 | 0.711 | 0.267 | 0.11 | 0.0892 | 0.112 | 0.104 | 0.11 | 0.54 | 0.709 | 0.546 | 0.544 | 0.246 | – | – | – | – | – |
| A-427 | 0.856 | 0.815 | 0.877 | 0.823 | 0.824 | 0.245 | 0.202 | 0.187 | 0.2 | 0.192 | 0.833 | 0.924 | 0.795 | 0.905 | 0.785 | 1.01 | 0.95 | 0.809 | 0.946 | 0.95 |
| H3255 | 0.854 | 0.825 | 0.855 | 0.691 | 0.755 | 0.588 | 0.645 | 0.585 | 0.507 | 0.604 | 0.787 | 0.892 | 1.01 | 0.965 | 0.727 | 0.656 | 0.558 | 0.512 | 0.436 | 0.46 |
| HCC-44 | 1.14 | 1.19 | 1.06 | 1.08 | 1.07 | 0.858 | 1.19 | 0.969 | 0.861 | 0.791 | 0.709 | 0.842 | 0.778 | 0.821 | 0.698 | 1.05 | 0.934 | 0.957 | 1.07 | 1.03 |
| NCI-H1734 | 0.802 | 0.623 | 0.969 | 0.716 | 0.456 | 0.269 | 0.245 | 0.277 | 0.247 | 0.257 | 0.63 | 0.576 | 0.622 | 0.683 | 0.533 | 0.847 | 0.733 | 0.834 | 0.879 | 0.808 |
| NCI-H2228 | 0.585 | 0.521 | 0.58 | 0.586 | 0.335 | 0.313 | 0.318 | 0.267 | 0.241 | 0.178 | 0.505 | 0.414 | 0.383 | 0.672 | 0.396 | 0.562 | 0.447 | 0.913 | 0.735 | 0.653 |
| ABC-1 | 0.996 | 0.953 | 1.29 | – | 0.774 | 0.149 | 0.131 | 0.189 | 0.186 | 0.207 | 1.2 | 1.46 | 0.814 | 1.08 | 0.495 | – | – | – | – | – |
| NCI-H661 | 0.721 | 0.918 | 0.748 | 0.703 | 0.565 | 0.338 | 0.362 | 0.373 | 0.359 | 0.355 | 0.98 | 1.12 | 0.939 | – | 0.894 | – | – | – | – | – |
| EBC-1 | – | – | – | – | – | – | – | – | – | – | 0.199 | 0.226 | 0.199 | 0.201 | 0.213 | 0.447 | 0.417 | 0.402 | 0.333 | 0.231 |
| NCI-H650 | 0.403 | 0.36 | 0.638 | 0.3 | 0.341 | 0.693 | 0.782 | 0.704 | 0.464 | 0.584 | 0.65 | 0.713 | 0.84 | – | 0.543 | – | – | – | – | – |
| NCI-H1792 | – | – | – | – | – | – | – | – | – | – | 0.837 | 1.01 | 0.82 | 0.873 | 0.919 | 0.616 | 0.583 | 0.663 | 0.443 | 0.609 |
| A549 | – | – | – | – | – | – | – | – | – | – | 0.674 | 0.82 | 0.799 | 0.809 | 0.591 | 1.08 | 1.06 | 1.21 | 1.19 | 0.925 |
| NCI-H2342 | 0.792 | 0.753 | 0.706 | 0.663 | 0.705 | 0.665 | 0.404 | 0.395 | 0.538 | 0.538 | – | – | – | – | – | – | – | – | – | – |
| NCI-H1703 | – | – | – | – | – | – | – | – | – | – | 0.643 | 0.609 | 0.563 | 0.635 | 0.556 | 0.957 | 0.862 | 1.05 | 1.21 | 0.87 |
| LCLC-103H | 0.753 | 0.764 | 0.733 | 0.448 | 0.68 | 0.443 | 0.583 | 0.532 | 0.434 | 0.399 | 1.02 | 1.04 | 0.955 | 0.975 | 0.919 | – | – | – | – | – |
| NCI-H1648 | 0.519 | 0.909 | 0.417 | 0.365 | 0.373 | 0.531 | 0.825 | 0.413 | 0.362 | 0.364 | – | – | – | – | – | – | – | – | – | – |
| NCI-H1563 | – | – | – | – | – | – | – | – | – | – | 0.832 | 0.73 | 0.889 | 0.899 | 0.836 | – | – | – | – | – |
| NCI-H1395 | 0.83 | 0.597 | 0.702 | – | 0.631 | 0.738 | 0.718 | 0.719 | 0.718 | 0.69 | – | – | – | – | – | 1.12 | 0.936 | 1.31 | 1.08 | 1.06 |
| NCI-H1793 | 0.707 | 0.718 | 0.59 | 0.716 | 0.439 | 0.329 | 0.337 | 0.333 | 0.501 | 0.234 | – | – | – | – | – | 0.432 | 0.335 | 0.326 | 0.511 | 0.313 |
